Test results: patent US20220002314A1 (priority 2018, published 2022)
Read-outs that look alike come from different tables or passages of the source.

Tests used:
Human μ-opioid receptor = Human μ-opioid receptor (Homo sapiens, UniProt P35372); experiment: biochemical; format: binding
[1] = target: Human α2δ-1 subunit of Cav2.2 calcium channel (Homo sapiens, UniProt P54289); experiment: biochemical; format: binding
Sequence of Human α2δ-1 subunit of Cav2.2 calcium channel (P54289 25-1103): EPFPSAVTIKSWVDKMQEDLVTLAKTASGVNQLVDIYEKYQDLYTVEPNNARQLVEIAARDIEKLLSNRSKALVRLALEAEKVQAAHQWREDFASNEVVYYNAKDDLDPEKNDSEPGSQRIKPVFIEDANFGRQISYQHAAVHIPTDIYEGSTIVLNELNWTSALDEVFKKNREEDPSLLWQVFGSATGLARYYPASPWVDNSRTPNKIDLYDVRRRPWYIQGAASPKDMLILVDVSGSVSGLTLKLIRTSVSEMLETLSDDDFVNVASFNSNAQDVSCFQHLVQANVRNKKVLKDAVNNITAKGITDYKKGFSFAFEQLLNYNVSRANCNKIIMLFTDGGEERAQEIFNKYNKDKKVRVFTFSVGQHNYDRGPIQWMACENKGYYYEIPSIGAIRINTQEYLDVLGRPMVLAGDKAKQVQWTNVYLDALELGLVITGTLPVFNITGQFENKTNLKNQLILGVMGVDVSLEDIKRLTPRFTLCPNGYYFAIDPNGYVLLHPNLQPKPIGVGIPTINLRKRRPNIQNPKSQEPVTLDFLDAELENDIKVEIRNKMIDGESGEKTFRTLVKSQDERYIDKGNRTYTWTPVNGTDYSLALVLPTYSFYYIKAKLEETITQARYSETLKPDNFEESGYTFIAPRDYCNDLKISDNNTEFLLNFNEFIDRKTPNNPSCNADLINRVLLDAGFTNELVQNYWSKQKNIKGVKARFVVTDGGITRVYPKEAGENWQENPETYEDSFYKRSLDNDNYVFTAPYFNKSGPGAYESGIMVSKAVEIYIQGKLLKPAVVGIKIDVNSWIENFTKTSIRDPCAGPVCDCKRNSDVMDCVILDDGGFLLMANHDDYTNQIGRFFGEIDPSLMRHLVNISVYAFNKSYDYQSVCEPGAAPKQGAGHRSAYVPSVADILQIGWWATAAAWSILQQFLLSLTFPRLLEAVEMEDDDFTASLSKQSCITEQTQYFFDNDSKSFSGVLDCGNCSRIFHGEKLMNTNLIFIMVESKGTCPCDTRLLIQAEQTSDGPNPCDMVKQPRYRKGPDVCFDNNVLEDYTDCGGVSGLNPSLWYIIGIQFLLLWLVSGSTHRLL

Sequence of Human μ-opioid receptor (P35372 whole entry): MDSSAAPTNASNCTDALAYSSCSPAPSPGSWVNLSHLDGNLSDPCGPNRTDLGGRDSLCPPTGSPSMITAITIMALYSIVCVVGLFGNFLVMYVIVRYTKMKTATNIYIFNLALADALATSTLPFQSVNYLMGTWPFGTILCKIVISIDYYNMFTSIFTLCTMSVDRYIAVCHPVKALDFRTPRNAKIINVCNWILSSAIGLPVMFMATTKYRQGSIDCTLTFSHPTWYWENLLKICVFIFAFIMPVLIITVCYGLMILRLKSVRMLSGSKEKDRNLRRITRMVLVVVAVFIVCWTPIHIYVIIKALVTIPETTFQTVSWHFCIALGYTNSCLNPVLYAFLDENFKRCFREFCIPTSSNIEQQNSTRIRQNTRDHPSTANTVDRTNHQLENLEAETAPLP

SMILES | Ki (Human μ-opioid receptor) | Ki [1] | Ki (Human μ-opioid receptor; read-out: μ-binding) | Ki ([1]; read-out: α2δ-1 binding)
CCC[C@@H](c1nc2ccc(Br)cc2c(=O)n1CC)N1CCN(C)[C@H](C)C1 [Example 110, 6-bromo-2-((S)-1-((R)-3,4-dimethylpiperazin-1-yl)butyl)-3-ethylquinazolin-4(3H)-one] | > 500 nM | > 5000 nM |  | 
CCC[C@@H](c1nc2ccc(Br)cc2c(=O)n1CC)N1CCN[C@@H](CF)C1 [Example 56, 6-bromo-3-ethyl-2-((S)-1-((R)-3-(fluoromethyl)piperazin-1-yl)butyl)quinazolin-4(3H)-one] | > 500 nM | > 5000 nM |  | 
CCC[C@@H](c1nc2cc(O[C@H](CCNC)c3ccccc3)ccc2c(=O)n1C)N1C[C@@H](C)N[C@@H](C)C1 [Example 164, 2-((S)-1-((3S,5R)-3,5-Dimethylpiperazin-1-yl)butyl)-3-methyl-7-((R)-3-(methylamino)-1-phenylpropoxy)quinazolin-4(3H)-one] | > 500 nM | 500 to 5000 nM |  | 
CCC[C@@H](c1nc2ccc(N3C[C@@H](C)OC4(CCN(CCc5ccccc5)CC4)C3)cc2c(=O)n1CC)N1C[C@@H](C)N[C@@H](C)C1 [Example 154, 2-((S)-1-((3S,5R)-3,5-Dimethylpiperazin-1-yl)butyl)-3-ethyl-6-((R)-2-methyl-9-phenethyl-1-oxa-4,9-diazaspiro[5.5]undecan-4-yl)quinazolin-4(3H)-one] | > 500 nM | < 500 nM |  | 
CCCC(c1nc2ccc(N3CCC(N(C)Cc4ccccc4)CC3)cc2c(=O)n1CC)N1C[C@@H](C)N[C@@H](C)C1 (stereo partly drawn) [Example 151, 6-(4-(benzyl(methyl)amino)piperidin-1-yl)-2-(1-((3S,5R)-3,5-dimethylpiperazin-1-yl)butyl)-3-ethylquinazolin-4(3H)-one] | > 500 nM | < 500 nM |  | 
CCCC(c1nc2ccc(CCN(C)Cc3ccccc3)cc2c(=O)n1CC)N1C[C@@H](C)N[C@@H](C)C1 (stereo partly drawn) [Example 174, 6-(2-(Benzyl(methyl)amino)ethyl)-2-(1-((3S,5R)-3,5-dimethylpiperazin-1-yl)butyl)-3-ethylquinazolin-4(3H)-one] | > 500 nM | < 500 nM |  | 
CCC[C@H](c1nc2ccccc2c(=O)n1CC)N1C[C@@H](C)N[C@@H](C)C1 [Example 34, 2-((R)-1-((3S,5R)-3,5-dimethylpiperazin-1-yl)butyl)-3-ethylquinazolin-4(3H)-one] | > 500 nM | < 500 nM |  | 
CCCC(c1nc2ccc(Br)cc2c(=O)n1CCC(=O)O)N1C[C@@H](C)N[C@@H](C)C1 (stereo partly drawn) [Example 125, 3-(6-Bromo-2-(1-((3S,5R)-3,5-dimethylpiperazin-1-yl)butyl)-4-oxoquinazolin-3(4H)-yl)propanoic acid] | 100 to 500 nM | 500 to 5000 nM |  | 
CCCC(c1nc2cc(C#N)ccc2c(=O)n1C)N1C[C@@H](C)N[C@@H](C)C1 (stereo partly drawn) [Example 176, 2-(1-((3S,5R)-3,5-Dimethylpiperazin-1-yl)butyl)-3-methyl-4-oxo-3,4-dihydroquinazoline-7-carbonitrile] | > 500 nM | < 500 nM |  | 
CCCC(c1nc2cc(C(=O)O)ccc2c(=O)n1CC)N1C[C@@H](C)N[C@@H](C)C1 (stereo partly drawn) [Example 179, 2-(1-((3S,5R)-3,5-dimethylpiperazin-1-yl)butyl)-3-ethyl-4-oxo-3,4-dihydroquinazoline-7-carboxylic acid] |  |  | > 500 nM | 500 to 5000 nM
CCCC(c1nc2cccnc2c(=O)n1CC)N1CCNCC1 (stereo not drawn) [Example 92, 3-ethyl-2-(1-(piperazin-1-yl)butyl)pyrido[3,2-d]pyrimidin-4(3H)-one] | > 500 nM | < 500 nM |  | 
CCC[C@H](c1nc2cc(Cl)c(Cl)cc2c(=O)n1C)N1CCN[C@@H](C)C1 [Example 206, 6,7-dichloro-3-methyl-2-((R)-1-((S)-3-methylpiperazin-1-yl)butyl)quinazolin-4(3H)-one] | 100 to 500 nM | < 500 nM |  | 
CCC[C@H](c1nc2cc(O[C@@H](CCNC)c3ccccc3)ccc2c(=O)n1C)N1C[C@@H](C)N[C@@H](C)C1 [Example 167, 2-((R)-1-((3S,5R)-3,5-dimethylpiperazin-1-yl)butyl)-3-methyl-7-((S)-3-(methylamino)-1-phenylpropoxy)quinazolin-4(3H)-one] | > 500 nM | < 500 nM |  | 
CCC[C@@H](c1nc2cc(O[C@@H](CCNC)c3ccccc3)ccc2c(=O)n1C)N1C[C@@H](C)N[C@@H](C)C1 [Example 166, 2-((S)-1-((3S,5R)-3,5-dimethylpiperazin-1-yl)butyl)-3-methyl-7-((S)-3-(methylamino)-1-phenylpropoxy)quinazolin-4(3H)-one] | > 500 nM | < 500 nM |  | 
CCC[C@@H](c1nc2ccc(Cl)cc2c(=O)n1CC)N1CCN[C@H](C)C1 [Example 102, 6-chloro-3-ethyl-2-((S)-1-((R)-3-methylpiperazin-1-yl)butyl)quinazolin-4(3H)-one] | > 500 nM | > 5000 nM |  | 
CCCCC(c1nc2ccccc2c(=O)n1CCOC)N1C[C@@H](C)N[C@@H](C)C1 (stereo partly drawn) [Example 115, 2-(1-((3S,5R)-3,5-dimethylpiperazin-1-yl)pentyl)-3-(2-methoxyethyl)quinazolin-4(3H)-one] |  | 500 to 5000 nM | > 500 nM | 
CCC[C@@H](c1nc2ncc(Br)cc2c(=O)n1CCC)N1CCN[C@@H](C)C1 [Example 73, 6-bromo-2-((S)-1-((S)-3-methylpiperazin-1-yl)butyl)-3-propylpyrido[2,3-d]pyrimidin-4(3H)-one] | > 500 nM | > 5000 nM |  | 

SMILES | Ki (Human μ-opioid receptor) | Ki [1] | Ki (Human μ-opioid receptor; read-out: μ-binding) | Ki ([1]; read-out: α2δ-1 binding)
CCCC(c1nc2cc(F)c(Br)cc2c(=O)n1CC)N1C[C@@H](C)N[C@@H](C)C1 (stereo partly drawn) [Example 18, 6-bromo-2-(1-((3S,5R)-3,5-dimethylpiperazin-1-yl)butyl)-3-ethyl-7-fluoroquinazolin-4(3H)-one] | > 500 nM | < 500 nM |  | 
CCCC(c1nc2cc(C(=O)NCc3ccccc3)ccc2c(=O)n1CC)N1C[C@@H](C)N[C@@H](C)C1 (stereo partly drawn) [Example 180, N-Benzyl-2-(1-((3S,5R)-3,5-dimethylpiperazin-1-yl)butyl)-3-ethyl-4-oxo-3,4-dihydroquinazoline-7-carboxamide] | > 500 nM | < 500 nM |  | 
CCC[C@H](c1nc2ccc(OC)cc2c(=O)n1CC)N1CCN[C@H](C)C1 [Example 211, 3-ethyl-6-methoxy-2-((R)-1-((R)-3-methylpiperazin-1-yl)butyl)quinazolin-4(3H)-one] | > 500 nM | < 500 nM |  | 
CCCC(c1nc2cc(F)c(F)cc2c(=O)n1CC)N1CCNCC1 (stereo not drawn) [Example 86, 3-ethyl-6,7-difluoro-2-(1-(piperazin-1-yl)butyl)quinazolin-4(3H)-one] | > 500 nM | < 500 nM |  | 
CCCC(c1nc2ccccc2c(=O)n1Cc1ccco1)N1C[C@@H](C)N[C@@H](C)C1 (stereo partly drawn) [Example 118, 2-(1-((3S,5R)-3,5-dimethylpiperazin-1-yl)butyl)-3-(furan-2-ylmethyl)quinazolin-4(3H)-one] | > 500 nM | < 500 nM |  | 
CCC[C@H](c1nc2cc(F)c(Br)cc2c(=O)n1CC)N1CCN[C@@H](C)C1 [Example 106, 6-bromo-3-ethyl-7-fluoro-2-((R)-1-((S)-3-methylpiperazin-1-yl)butyl)quinazolin-4(3H)-one] | < 100 nM | < 500 nM |  | 
CCC[C@@H](c1nc2c(F)cc(OC)c(Br)c2c(=O)n1CC)N1CCNCC1 [Example 39, (S)-5-Bromo-3-ethyl-8-fluoro-6-methoxy-2-(1-(piperazin-1-yl)butyl)quinazolin-4(3H)-one] |  |  | > 500 nM | > 5000 nM
CCC[C@H](c1nc2ccc(F)c(F)c2c(=O)n1C)N1CCN[C@@H](C)C1 [Example 222, 5,6-difluoro-3-methyl-2-((R)-1-((S)-3-methylpiperazin-1-yl)butyl)quinazolin-4(3H)-one] |  |  | > 500 nM | 500 to 5000 nM
CCC[C@@H](c1nc2c(F)cc(Br)cc2c(=O)n1CC)N1CCNCC1 [Example 95, (S)-6-bromo-3-ethyl-8-fluoro-2-(1-(piperazin-1-yl)butyl)quinazolin-4(3H)-one] | > 500 nM | > 5000 nM |  | 
CCC[C@H](c1nc2ccc(C(NC)c3ccccc3)cc2c(=O)n1CC)N1C[C@@H](C)N[C@@H](C)C1 (stereo partly drawn) [Example 236, 2-((R)-1-((3S,5R)-3,5-Dimethylpiperazin-1-yl)butyl)-3-ethyl-6-((methylamino)(phenyl)methyl)quinazolin-4(3H)-one] | > 500 nM | < 500 nM |  | 
CCC[C@@H](c1nc2cc(O[C@@H](CNC)c3ccccc3)ccc2c(=O)n1C)N1C[C@@H](C)N[C@@H](C)C1 [Example 171, 2-((S)-1-((3S,5R)-3,5-dimethylpiperazin-1-yl)butyl)-3-methyl-7-((R)-2-(methylamino)-1-phenylethoxy)quinazolin-4(3H)-one] | > 500 nM | 500 to 5000 nM |  | 
CCC[C@H](c1nc2cc(F)c(OC)cc2c(=O)n1CC)N1CCN[C@H](C)C1 [Example 210, 3-ethyl-7-fluoro-6-methoxy-2-((R)-1-((R)-3-methylpiperazin-1-yl)butyl)quinazolin-4(3H)-one] | > 500 nM | < 500 nM |  | 
CCCC(c1nc2ccccc2c(=O)n1CCN(C)C)N1C[C@@H](C)N(C)[C@@H](C)C1 (stereo partly drawn) [Example 131, 3-(2-(Dimethylamino)ethyl)-2-(1-((3S,5R)-3,4,5-trimethylpiperazine-1-yl)butyl)quinazolin-4(3H)-one] |  |  | > 500 nM | > 5000 nM
CCCC(c1nc2cnccc2c(=O)n1CCOC)N1C[C@@H](C)N[C@@H](C)C1 (stereo partly drawn) [Example 121, 2-(1-((3S,5R)-3,5-dimethylpiperazin-1-yl)butyl)-3-(2-methoxyethyl)pyrido[3,4-d]pyrimidin-4(3H)-one] | > 500 nM | < 500 nM |  | 
CCCC(c1nc2ncccc2c(=O)n1CC)N1CCNCC1 (stereo not drawn) [Example 94, 3-ethyl-2-(1-(piperazin-1-yl)butyl)pyrido[2,3-d]pyrimidin-4(3H)-one] | > 500 nM | < 500 nM |  | 
CCCC(c1nc2cc(NCCNC)ccc2c(=O)n1CC)N1C[C@@H](C)N[C@@H](C)C1 (stereo partly drawn) [Example 147, 2-(1-((3S,5R)-3,5-dimethylpiperazin-1-yl)butyl)-3-ethyl-7-((2-(methylamino)ethyl)amino)quinazolin-4(3H)-one] | > 500 nM | < 500 nM |  | 
